We go through 2 molecules from ChEMBL document CHEMBL5678810.

Molecules are shown by their SMILES.

The target in experiment [1] is CDK4/Cyclin D3 (Homo sapiens) (UniProt P11802+P30281). Put plainly: Inhibition of T7 bacteriophage fused human CDK4-cyclinD3 at 10 uM by KINOMEscan analysis relative to control. It counts as protein-complex assay.
In experiment [2] the test system is Tyrosine-protein kinase ABL1 (Homo sapiens), P00519 [E255K]. Kind of experiment: Inhibition of T7 bacteriophage fused human phosphorylated ABL1 E255K mutant at 10 uM by KINOMEscan analysis relative to control.
Experiment [3] has as its target Serine/threonine-protein kinase PLK3 (Homo sapiens) (UniProt Q9H4B4). Kind of experiment: Inhibition of T7 bacteriophage fused human PLK3 at 10 uM by KINOMEscan analysis relative to control.
For experiment [4], the target named is Serine/threonine-protein kinase MRCK alpha (Homo sapiens) (UniProt Q5VT25). Kind of experiment: Inhibition of T7 bacteriophage fused human MRCKA at 10 uM by KINOMEscan analysis relative to control.
Serine/threonine-protein kinase MRCK alpha (Homo sapiens), sequence (Q5VT25 whole entry, the tested form may be a part): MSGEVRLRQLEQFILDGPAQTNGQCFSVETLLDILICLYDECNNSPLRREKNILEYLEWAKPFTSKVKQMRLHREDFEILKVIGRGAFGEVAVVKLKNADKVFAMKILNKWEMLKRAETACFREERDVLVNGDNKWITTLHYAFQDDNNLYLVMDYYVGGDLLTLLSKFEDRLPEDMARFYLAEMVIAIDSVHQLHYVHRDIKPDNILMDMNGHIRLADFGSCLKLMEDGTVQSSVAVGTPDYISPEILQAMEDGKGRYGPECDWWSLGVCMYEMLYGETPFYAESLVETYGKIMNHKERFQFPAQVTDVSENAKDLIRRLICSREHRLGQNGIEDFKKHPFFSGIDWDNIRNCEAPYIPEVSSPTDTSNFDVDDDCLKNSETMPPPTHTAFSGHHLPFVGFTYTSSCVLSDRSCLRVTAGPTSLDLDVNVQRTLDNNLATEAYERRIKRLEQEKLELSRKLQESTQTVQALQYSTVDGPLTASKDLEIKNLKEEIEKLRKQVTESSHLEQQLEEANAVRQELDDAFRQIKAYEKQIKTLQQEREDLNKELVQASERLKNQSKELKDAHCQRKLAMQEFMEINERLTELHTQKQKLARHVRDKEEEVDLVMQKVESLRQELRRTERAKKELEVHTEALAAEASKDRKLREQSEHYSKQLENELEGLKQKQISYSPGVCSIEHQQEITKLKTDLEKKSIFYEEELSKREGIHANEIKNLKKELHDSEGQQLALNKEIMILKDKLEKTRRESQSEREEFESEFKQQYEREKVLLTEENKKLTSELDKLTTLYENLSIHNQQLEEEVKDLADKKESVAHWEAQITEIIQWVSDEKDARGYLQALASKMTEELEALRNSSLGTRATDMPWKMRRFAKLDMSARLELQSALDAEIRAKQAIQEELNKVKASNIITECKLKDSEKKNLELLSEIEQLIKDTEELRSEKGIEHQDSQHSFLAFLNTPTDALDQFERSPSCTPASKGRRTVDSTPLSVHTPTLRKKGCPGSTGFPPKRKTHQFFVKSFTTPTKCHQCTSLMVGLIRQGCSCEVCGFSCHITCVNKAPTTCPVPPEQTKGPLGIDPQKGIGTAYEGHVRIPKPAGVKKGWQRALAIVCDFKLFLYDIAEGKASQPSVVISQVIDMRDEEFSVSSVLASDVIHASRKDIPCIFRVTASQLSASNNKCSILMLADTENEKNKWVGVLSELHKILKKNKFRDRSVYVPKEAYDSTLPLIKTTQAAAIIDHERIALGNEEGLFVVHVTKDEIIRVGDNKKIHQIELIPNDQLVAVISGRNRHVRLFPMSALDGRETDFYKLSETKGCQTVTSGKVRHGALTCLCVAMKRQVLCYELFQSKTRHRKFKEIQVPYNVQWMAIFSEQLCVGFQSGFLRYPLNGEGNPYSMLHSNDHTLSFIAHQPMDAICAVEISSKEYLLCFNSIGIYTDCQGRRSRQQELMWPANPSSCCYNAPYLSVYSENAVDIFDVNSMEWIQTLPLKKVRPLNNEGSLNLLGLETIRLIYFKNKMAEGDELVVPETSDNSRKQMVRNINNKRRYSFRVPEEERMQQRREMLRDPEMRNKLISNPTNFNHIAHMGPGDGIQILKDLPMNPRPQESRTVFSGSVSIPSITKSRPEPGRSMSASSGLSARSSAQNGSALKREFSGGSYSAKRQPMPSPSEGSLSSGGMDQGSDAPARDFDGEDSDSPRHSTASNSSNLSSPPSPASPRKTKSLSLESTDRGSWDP
Experiment [5] concerns the target Death-associated protein kinase 2 (Homo sapiens) (UniProt Q9UIK4). Kind of experiment: Inhibition of T7 bacteriophage fused human DAPK2 at 10 uM by KINOMEscan analysis relative to control; values are per cent of control.
For experiment [6], the target named is Serine/threonine-protein kinase LATS1 (Homo sapiens) (UniProt O95835). Put plainly: Inhibition of T7 bacteriophage fused human LATS1 at 10 uM by KINOMEscan analysis relative to control.
Experiment [7] concerns the target Phosphatidylinositol 4,5-bisphosphate 3-kinase catalytic subunit beta isoform (Homo sapiens) (UniProt P42338). Put plainly: Inhibition of T7 bacteriophage fused human PIK3CB at 10 uM by KINOMEscan analysis relative to control.
The target of experiment [8] is Phosphorylase b kinase gamma catalytic chain, liver/testis isoform (Homo sapiens) (UniProt P15735). Kind of experiment: Inhibition of T7 bacteriophage fused human PHKG2 at 10 uM by KINOMEscan analysis relative to control.
For experiment [9], the target named is Proto-oncogene tyrosine-protein kinase ROS (Homo sapiens) (UniProt P08922). Put plainly: Inhibition of T7 bacteriophage fused human ROS1 at 10 uM by KINOMEscan analysis relative to control.
Proto-oncogene tyrosine-protein kinase ROS (Homo sapiens), sequence (P08922 whole entry, the tested form may be a part): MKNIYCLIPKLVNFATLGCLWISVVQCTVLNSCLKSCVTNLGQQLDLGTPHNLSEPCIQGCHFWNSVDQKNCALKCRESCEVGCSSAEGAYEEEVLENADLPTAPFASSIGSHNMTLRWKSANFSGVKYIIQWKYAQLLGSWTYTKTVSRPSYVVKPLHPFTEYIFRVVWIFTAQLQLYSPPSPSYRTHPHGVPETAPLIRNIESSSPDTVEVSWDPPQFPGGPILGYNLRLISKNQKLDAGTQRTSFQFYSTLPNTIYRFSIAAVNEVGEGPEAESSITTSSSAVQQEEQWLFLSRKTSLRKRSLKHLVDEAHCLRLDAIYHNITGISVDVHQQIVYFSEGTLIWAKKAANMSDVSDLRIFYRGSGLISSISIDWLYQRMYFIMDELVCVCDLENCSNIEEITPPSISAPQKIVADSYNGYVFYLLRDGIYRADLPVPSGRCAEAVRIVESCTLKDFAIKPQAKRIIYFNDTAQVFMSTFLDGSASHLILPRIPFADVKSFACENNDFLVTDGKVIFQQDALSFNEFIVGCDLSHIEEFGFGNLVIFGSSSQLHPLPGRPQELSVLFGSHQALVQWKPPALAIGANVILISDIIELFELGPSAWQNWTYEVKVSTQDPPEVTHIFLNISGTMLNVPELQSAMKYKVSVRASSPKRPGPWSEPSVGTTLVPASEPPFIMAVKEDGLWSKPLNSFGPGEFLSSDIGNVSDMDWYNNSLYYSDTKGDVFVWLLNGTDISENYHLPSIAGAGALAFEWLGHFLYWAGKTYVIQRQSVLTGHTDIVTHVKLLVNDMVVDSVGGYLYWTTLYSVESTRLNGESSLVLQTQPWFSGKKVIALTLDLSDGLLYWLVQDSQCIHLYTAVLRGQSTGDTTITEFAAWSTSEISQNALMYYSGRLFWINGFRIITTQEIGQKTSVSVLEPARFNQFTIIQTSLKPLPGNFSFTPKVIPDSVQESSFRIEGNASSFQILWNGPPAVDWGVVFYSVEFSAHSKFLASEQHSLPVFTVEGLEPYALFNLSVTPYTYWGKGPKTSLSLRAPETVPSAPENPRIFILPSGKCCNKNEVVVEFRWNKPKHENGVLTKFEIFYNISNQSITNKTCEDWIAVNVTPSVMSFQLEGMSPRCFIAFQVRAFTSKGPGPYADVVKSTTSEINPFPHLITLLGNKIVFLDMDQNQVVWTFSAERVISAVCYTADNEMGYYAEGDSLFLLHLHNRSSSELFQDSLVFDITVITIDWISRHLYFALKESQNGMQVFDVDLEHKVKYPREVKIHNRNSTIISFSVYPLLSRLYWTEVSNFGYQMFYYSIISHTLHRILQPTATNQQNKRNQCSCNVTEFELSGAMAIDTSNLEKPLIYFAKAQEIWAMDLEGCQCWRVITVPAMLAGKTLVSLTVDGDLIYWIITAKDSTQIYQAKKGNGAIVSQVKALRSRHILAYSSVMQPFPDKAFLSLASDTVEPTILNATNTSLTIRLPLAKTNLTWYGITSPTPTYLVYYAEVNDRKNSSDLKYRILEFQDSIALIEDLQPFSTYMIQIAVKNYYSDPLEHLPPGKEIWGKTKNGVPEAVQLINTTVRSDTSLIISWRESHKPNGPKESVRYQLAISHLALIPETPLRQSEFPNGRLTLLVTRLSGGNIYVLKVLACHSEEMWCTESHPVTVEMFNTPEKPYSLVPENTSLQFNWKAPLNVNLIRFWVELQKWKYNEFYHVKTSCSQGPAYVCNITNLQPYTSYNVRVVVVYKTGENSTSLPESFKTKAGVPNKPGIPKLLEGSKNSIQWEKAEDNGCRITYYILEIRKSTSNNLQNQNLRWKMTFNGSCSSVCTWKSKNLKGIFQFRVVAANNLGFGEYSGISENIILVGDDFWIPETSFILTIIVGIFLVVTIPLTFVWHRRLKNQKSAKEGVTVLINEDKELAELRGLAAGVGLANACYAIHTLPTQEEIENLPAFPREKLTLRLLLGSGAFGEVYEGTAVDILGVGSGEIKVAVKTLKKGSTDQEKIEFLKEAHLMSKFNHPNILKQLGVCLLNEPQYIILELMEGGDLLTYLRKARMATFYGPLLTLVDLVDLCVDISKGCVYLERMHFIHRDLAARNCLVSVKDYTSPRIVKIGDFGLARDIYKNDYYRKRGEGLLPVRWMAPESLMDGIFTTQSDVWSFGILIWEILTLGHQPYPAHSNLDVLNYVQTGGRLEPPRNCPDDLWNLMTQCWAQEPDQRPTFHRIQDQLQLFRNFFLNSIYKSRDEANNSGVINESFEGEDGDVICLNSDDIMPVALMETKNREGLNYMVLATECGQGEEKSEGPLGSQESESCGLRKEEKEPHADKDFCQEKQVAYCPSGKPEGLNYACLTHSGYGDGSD
Experiment [10] concerns the target Mitogen-activated protein kinase kinase kinase 9 (Homo sapiens) (UniProt P80192). Put plainly: Inhibition of T7 bacteriophage fused human MLK1 at 10 uM by KINOMEscan analysis relative to control; values are per cent of control.
In experiment [11] the target is Ribosomal protein S6 kinase alpha-1 (Homo sapiens) (UniProt Q15418). Put plainly: Inhibition of T7 bacteriophage fused human N-terminal RSK1 Kinase domain-1 at 10 uM by KINOMEscan analysis relative to control.
Experiment [12] addresses Phosphorylase b kinase gamma catalytic chain, skeletal muscle/heart isoform (Homo sapiens) (UniProt Q16816). Kind of experiment: Inhibition of T7 bacteriophage fused human PHKG1 at 10 uM by KINOMEscan analysis relative to control.
The test system of experiment [13] is Phosphatidylinositol 4,5-bisphosphate 3-kinase catalytic subunit alpha isoform (Homo sapiens), P42336 [H1047Y]. Put plainly: Inhibition of T7 bacteriophage fused human PIK3CA H1047Y mutant at 10 uM by KINOMEscan analysis relative to control.
Experiment [14] has as its target Serine/threonine-protein kinase 10 (Homo sapiens) (UniProt O94804). Put plainly: Inhibition of T7 bacteriophage fused human LOK at 10 uM by KINOMEscan analysis relative to control.
The target of experiment [15] is Glycogen synthase kinase-3 alpha (Homo sapiens) (UniProt P49840). Kind of experiment: Inhibition of T7 bacteriophage fused human GSK3A at 10 uM by KINOMEscan analysis relative to control.
For experiment [16], the target named is Serine/threonine-protein kinase PLK4 (Homo sapiens) (UniProt O00444). Put plainly: Inhibition of T7 bacteriophage fused human PLK4 at 10 uM by KINOMEscan analysis relative to control.
The test system of experiment [17] is Mast/stem cell growth factor receptor Kit (Homo sapiens), P10721 [V559D,V654A]. Kind of experiment: Inhibition of T7 bacteriophage fused human KIT V559D/V654A mutant at 10 uM by KINOMEscan analysis relative to control.
Experiment [18] has as its target Rho-associated protein kinase 1 (Homo sapiens) (UniProt Q13464). Kind of experiment: Inhibition of T7 bacteriophage fused human ROCK1 at 10 uM by KINOMEscan analysis relative to control.
Experiment [19] has as its target Serine/threonine-protein kinase PAK 4 (Homo sapiens) (UniProt O96013). Put plainly: Inhibition of T7 bacteriophage fused human PAK4 at 10 uM by KINOMEscan analysis relative to control.
The target of experiment [20] is Mitogen-activated protein kinase 10 (Homo sapiens) (UniProt P53779). Put plainly: Inhibition of T7 bacteriophage fused human JNK3 at 10 uM by KINOMEscan analysis relative to control; values are per cent of control.
Experiment [21] concerns Phosphatidylinositol 4,5-bisphosphate 3-kinase catalytic subunit alpha isoform (Homo sapiens), P42336 [E545K]. Kind of experiment: Inhibition of T7 bacteriophage fused human PIK3CA E545K mutant at 10 uM by KINOMEscan analysis relative to control.
The test system of experiment [22] is Tyrosine-protein kinase ABL1 (Homo sapiens), P00519 [M351T]. Kind of experiment: Inhibition of T7 bacteriophage fused human phosphorylated ABL1 M351T mutant at 10 uM by KINOMEscan analysis relative to control.
Experiment [23] deals with Tyrosine-protein kinase JAK1 (Homo sapiens) (UniProt P23458). Put plainly: Inhibition of T7 bacteriophage fused human JAK1JH2 pseudokinase domain at 10 uM by KINOMEscan analysis relative to control.
The target of experiment [24] is Receptor tyrosine-protein kinase erbB-4 (Homo sapiens) (UniProt Q15303). Kind of experiment: Inhibition of T7 bacteriophage fused human ERBB4 at 10 uM by KINOMEscan analysis relative to control.
Experiment [25] addresses Cyclin-dependent kinase-like 3 (Homo sapiens) (UniProt Q8IVW4). Kind of experiment: Inhibition of T7 bacteriophage fused human CDKL3 at 10 uM by KINOMEscan analysis relative to control; values are per cent of control.
The subject of experiment [26] is Tyrosine-protein kinase ABL1 (Homo sapiens), P00519 [T315I]. Kind of experiment: Inhibition of T7 bacteriophage fused human phosphorylated ABL1 T315I mutant at 10 uM by KINOMEscan analysis relative to control.
Experiment [27] addresses Tyrosine-protein kinase ABL1 (Homo sapiens) (UniProt P00519). Put plainly: Inhibition of T7 bacteriophage fused human phosphorylated ABL1 at 10 uM by KINOMEscan analysis relative to control.
Experiment [28] relates to Phosphatidylinositol 4,5-bisphosphate 3-kinase catalytic subunit alpha isoform (Homo sapiens), P42336 [I800L]. Put plainly: Inhibition of T7 bacteriophage fused human PIK3CA I800L mutant at 10 uM by KINOMEscan analysis relative to control.
Experiment [29] has as its system Epidermal growth factor receptor (Homo sapiens), P00533 [T790M]. Put plainly: Inhibition of T7 bacteriophage fused human EGFR T790M mutant at 10 uM by KINOMEscan analysis relative to control; values are per cent of control.
Experiment [30] concerns the target 3-phosphoinositide-dependent protein kinase 1 (Homo sapiens) (UniProt O15530). Put plainly: Inhibition of PDK1 Lys1 labeling site in human PC-3 cell lysate at 10 uM by KiNativ profiling analysis relative to control.

Mitogen-activated protein kinase kinase kinase 9 (Homo sapiens), sequence (P80192 whole entry, looked up, the tested form may be a part): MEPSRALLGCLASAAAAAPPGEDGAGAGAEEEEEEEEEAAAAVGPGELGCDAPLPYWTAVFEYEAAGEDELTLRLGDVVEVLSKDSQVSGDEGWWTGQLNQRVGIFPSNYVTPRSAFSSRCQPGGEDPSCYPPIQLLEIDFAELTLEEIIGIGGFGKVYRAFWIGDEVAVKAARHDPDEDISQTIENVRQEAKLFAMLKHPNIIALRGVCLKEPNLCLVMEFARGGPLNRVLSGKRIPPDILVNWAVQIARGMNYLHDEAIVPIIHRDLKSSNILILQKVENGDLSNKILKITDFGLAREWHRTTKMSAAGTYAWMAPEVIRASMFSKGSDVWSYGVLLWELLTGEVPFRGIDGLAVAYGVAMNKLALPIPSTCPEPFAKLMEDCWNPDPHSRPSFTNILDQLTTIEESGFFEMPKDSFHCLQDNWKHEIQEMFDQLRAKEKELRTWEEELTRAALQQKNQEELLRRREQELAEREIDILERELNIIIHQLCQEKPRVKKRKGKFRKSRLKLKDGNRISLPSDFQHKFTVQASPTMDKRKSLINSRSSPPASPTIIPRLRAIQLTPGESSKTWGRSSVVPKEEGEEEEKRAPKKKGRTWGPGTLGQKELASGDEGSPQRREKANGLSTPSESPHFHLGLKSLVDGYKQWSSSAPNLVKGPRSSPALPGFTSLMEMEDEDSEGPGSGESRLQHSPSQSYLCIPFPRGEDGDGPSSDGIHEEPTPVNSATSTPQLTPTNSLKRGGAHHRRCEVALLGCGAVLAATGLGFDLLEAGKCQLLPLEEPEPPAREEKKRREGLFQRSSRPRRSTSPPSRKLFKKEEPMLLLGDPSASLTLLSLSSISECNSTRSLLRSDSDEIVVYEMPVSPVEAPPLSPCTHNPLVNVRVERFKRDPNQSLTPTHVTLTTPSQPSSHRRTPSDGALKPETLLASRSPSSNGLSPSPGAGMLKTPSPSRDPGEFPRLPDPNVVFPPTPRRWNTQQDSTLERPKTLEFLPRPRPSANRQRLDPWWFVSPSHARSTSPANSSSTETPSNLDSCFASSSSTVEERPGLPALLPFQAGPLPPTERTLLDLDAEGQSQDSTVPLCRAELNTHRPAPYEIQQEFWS

As to `COc1cc(N2CCC(N3CCN(C)CC3)CC2)ccc1Nc1ncc2c(n1)N(C)c1ccccc1C(=O)N2C`, the inhibition in experiment [1] worked out at 100%; in [2], 80%; in experiment [3] it was 51%; in experiment [4] it was 100%; in [6], 100%; in experiment [7], 96%. In addition, the inhibition in [8] came out at 33%; in experiment [9], 12%; in experiment [11], 73%; in [12] it was 54%; in experiment [13], 71%; in experiment [14], 100%. Moreover, the inhibition in [15] came out at 100%; in experiment [16] it was 0%; in [17], 100%; in [18], 100%; in experiment [19], 94%; in [21], 100%. Further, the inhibition in experiment [22] was determined as 94%; in [23], 92%; in experiment [24] it was 100%; in [26], 58%; in experiment [27] it was 82%; in experiment [28], 38%. Further, the residual activity in [5] stood at 67%; in experiment [10] it was 93%; in experiment [20], 77%; in [25] it was 83%; in experiment [29], 88%.
`CCOc1cc(C(=O)N2CCC(N3CCN(C)CC3)CC2)ccc1Nc1ncc2c(n1)N(C1CCCC1)c1ccccc1C(=O)N2C` displayed an inhibition in [30] of 0%.
